Measurements reported in patent publication US4568691A, “Anti-inflammatory esters of 4-(1-hydroxy-2-[(acylamino)-alkylamino]-ethyl)-phenol derivatives, compositions, and method of use therefor” (Imperial Chemical Industries, PLC, priority 1981, dated 1986).

Columns and labels:
[1] = tested on: croton oil induced inflammation on the mouse ear; assay: effect of repeated topical application on anti-inflammatory properties in the croton oil induced inflammation test; format: in vivo, albino mouse (Alderley Park Strain); conditions: single application immediately after croton oil; rate approximately 4 × IC50
[2] = tested on: croton oil induced inflammation on the mouse ear; assay: croton oil induced inflammation test on the mouse ear, single topical application; format: in vivo, albino mouse (Alderley Park Strain); conditions: 4 hours after croton oil
Experimental: A 4% v/v solution of croton oil in (acetone) was prepared. A portion (10 μl.) of this solution was applied to the right ear of an albino mouse (Alderley Park Strain, specific pathogen free). This was followed by immediate application of a portion (10 μl.) of a solution of test compound in ethanol to the same ear of the mouse. This procedure was repeated for a total of ten mice.
After 4 hours the mice were sacrificed and both ears from each mouse were removed and weighed. The increase in weight of the right over the left ear for each mouse was then determined and an average obtained for the group as a whole. […] The percentage inhibition of croton oil induced inflammation was then calculated for the test compound.

[3] = tested on: croton oil induced inflammation on the mouse ear; assay: effect of repeated topical application on anti-inflammatory properties in the croton oil induced inflammation test; format: in vivo, albino mouse (Alderley Park Strain); conditions: for Percentage reduction in croton oil induced inflammation, Four Applns: four applications (3, 2, 1 day before and immediately after croton oil), rate approximately 4 × IC50
Excerpt: (b) An indication of the effect of repeated topical application of a test compound on its anti-inflammatory properties was obtained as follows:
first application received 3 days before croton oil;
second application received 2 days before croton oil;
third application received 1 day before croton oil; and
fourth application received immediately after croton oil.

[4] = tested on: croton oil induced inflammation on the mouse ear; conditions: known from earlier patent publications (UK 1591618); cited from earlier work

IC50 (amount of test compound per ear which inhibited the inflammation by 50%) [2] | Compound | Percentage reduction in croton oil induced inflammation, Single Appln [1] | Percentage reduction in croton oil induced inflammation, Four Applns [3] | reduction in topical anti-inflammatory properties after repeated topical applications ([3]; two or more / several topical applications spaced over several days) | topical anti-inflammatory properties [4]
2 μg/ear | CC(C)(CNC(=O)c1ccoc1)NCC(O)c1ccc(OC(=O)C(C)(C)C)c(OC(=O)C(C)(C)C)c1 (centres unmarked) [Example 3-furyl] | 65% | 45% |  | 
13 μg/ear | CC(C)(CNC(=O)c1ccco1)NCC(O)c1ccc(OC(=O)C(C)(C)C)c(OC(=O)C(C)(C)C)c1 (centres unmarked) [Example 7, 4-(1-hydroxy-2-[2-(2-furylcarboxyamido)-1,1-dimethyl-ethylamino]ethyl)catechol dipivaloyl ester] | 60% | 64% |  | 
23 μg/ear | CC(C)(CNC(=O)c1cc2ccccc2s1)NCC(O)c1ccc(OC(=O)C(C)(C)C)c(OC(=O)C(C)(C)C)c1 (centres unmarked) [Example 9, 4-(1-hydroxy-2-[1,1-dimethyl-2-(2-benzo[b]thienylcarboxamido)ethylamino]ethyl)catechol dipivaloyl ester] | 64% | 65% |  | 
2.5 μg/ear | CC(C)(CNCC(O)c1ccc(OC(=O)C(C)(C)C)c(OC(=O)C(C)(C)C)c1)NC(=O)COc1ccccc1 (centres unmarked) [phenoxymethyl, 4-(1-hydroxy-2-[2-methyl-2-(phenoxyacetamido)-propylamino]ethyl)catechol dipivaloyl ester] | 60% | 23% | significant reduction in topical anti-inflammatory properties | potent topical anti-inflammatory properties

Continued, compound first:

Compound | IC50 (amount of test compound per ear which inhibited the inflammation by 50%) [2] | Percentage reduction in croton oil induced inflammation, Single Appln [1] | Percentage reduction in croton oil induced inflammation, Four Applns [3] | reduction in topical anti-inflammatory properties after repeated topical applications ([3]; two or more / several topical applications spaced over several days) | topical anti-inflammatory properties [4]
CC(C)(CNC(=O)c1cc(Cl)ccn1)NCC(O)c1ccc(OC(=O)C(C)(C)C)c(OC(=O)C(C)(C)C)c1 (centres unmarked) [4-chloro-2-pyridyl] | 7 μg/ear | 68% | 33% |  | 
CC(C)(CNC(=O)c1cccs1)NCC(O)c1ccc(OC(=O)C(C)(C)C)c(OC(=O)C(C)(C)C)c1 (centres unmarked) [Example 2-thienyl] | 7 μg/ear | 71% | 33% |  | 
CC(C)(CNC(=O)c1cc2ccccc2o1)NCC(O)c1ccc(OC(=O)C(C)(C)C)c(OC(=O)C(C)(C)C)c1 (centres unmarked) [Example 8, 4-(1-hydroxy-2-[1,1-dimethyl-2-(2-benzo[b]furyl-carboxamido)ethylamino]ethyl)catechol dipivaloyl ester] | 11 μg/ear | 61% | 59% |  | 
